Measurements as given in a melting point compilation (Tetko et al.; mined from patent text by program, amines drawn as free bases though some values may be those of a salt).

| Structure (SMILES) | melting point |
| --- | --- |
| Nc1cc(Cl)ccc1C(=O)NO | 131 to 133 °C |
| COc1ccc(S(=O)(=O)n2c(=O)[nH]c3cc(Cl)ccc3c2=O)cc1OC | > 250 °C |
| CCOP(=O)(/C=C/c1cn(-c2ccccc2)nc1OCc1ccc(OCc2nc(-c3ccccc3)sc2C)c(OC)c1)OCC | 110 to 111 °C |
| CC(C)(C)NS(=O)(=O)c1ccccc1CCCl | 64 to 65 °C |
| COc1ccc2cc(CCCOCCCCCCNCC(O)c3ccc(O)c(NS(C)(=O)=O)c3)ccc2c1 (configuration not stated) | 87 to 89 °C |
| CCCN1CCN(C(=O)C(Cl)Cl)CC1 | 88 °C |
| COc1ccc(N2C(=O)C(C)(C)N(c3ccc(Cc4ccccc4)cc3)C2=S)cc1 | 162 °C |
| Cc1nnsc1C(=O)NCCc1ccccc1 | 64 to 68 °C |
| Cc1ccnc(C=Cc2ccccc2)n1 | 65 to 67 °C |
| Cc1c(C)c(Cl)c2ccccc2c1Cl | 142 °C |
| Cc1ccccc1CC(C(=O)Nc1nc2cc(Cl)ccc2o1)c1ccc(S(C)(=O)=O)cc1 (configuration not stated) | 184 to 185 °C |
| CN(c1ccc(C(=O)O)cc1)c1cc2c3c(c1)CCCC3(C)CCC2 | 257 to 258 °C |
| CC(=O)NCC(NC(C)=O)c1ccccc1 (configuration not stated) | 155 to 156 °C |
| C=CCn1nc(C)c(C(=O)c2ccc(Cl)cc2Cl)c1OS(=O)(=O)c1ccc(C)cc1 | 113 to 114 °C |
| CCCCCCCN(CCOCCSc1nc(-c2ccc(OC)cc2)c(-c2ccc(OC)cc2)[nH]1)C(=O)NC(C)C | 85 to 87 °C |
| O=C(c1ccc(Cl)cc1)C(O)c1ccc(Cl)cc1 (configuration not stated) | 73 °C |
| O=C1c2ccccc2-c2c1c1ccc([N+](=O)[O-])cc1c(=O)n2CCCNS(=O)(=O)c1ccccc1 | 258 to 259 °C |
| Cc1ccc(S(=O)(=O)N2[C@@H](CC(=N)NO)CC[C@H]2c2ccc(F)cc2)cc1 (racemic) | 84 °C |
| O=C1NCCc2ccc(OCCCCN3CCN(c4cccc5c4OCCCO5)CC3)nc2N1 | 78 to 79 °C |
| CN(C)c1ccc(C2CCCN2S(=O)(=O)c2ccc(Cl)cc2)cc1F (racemic) | 99 °C |
| COC(=O)Cc1cscc1C(=O)O | 121 to 122 °C |
| C(=C\c1nc(COc2ccc(-n3ccnc3)cc2)co1)/c1ccccc1 | 160 to 162 °C |
| CCCCCCN(Cc1ccc2ccccc2n1)C(Nc1ccc(OC)cc1OC)=C1C(=O)OC(C)(C)OC1=O | 106 to 109 °C |
| CC(C)COC(=O)N[C@@H](CC(C)C)C(=O)N[C@@H](C(C)C)[C@@H](O)c1c(-c2ccccc2)c1=O | 145 to 146 °C |
| O=C(O)CCc1conc1-c1ccc(Cl)c(F)c1 | 148 to 149 °C |

| Structure (SMILES) | melting point |
| --- | --- |
| CC(=O)NC[C@H]1CN(c2ccc(N3CCC(F)(CN)CC3)c(F)c2)C(=O)O1 | 152 to 155 °C |
| CS(=O)(=O)c1ccc(-n2nc(C(F)(F)F)cc2-c2ccc(-c3ccco3)cc2)cc1Cl | 139 to 142 °C |
| COc1ccc2c(c1)OC(C)(C)C(NC(=O)c1cc(Cl)ccc1OC)C2=O (configuration not stated) | 174 °C |
| CCN(CC)C(=O)n1ccc(S(=O)(=O)c2c(C)cc(Br)cc2C)n1 | 96 to 100 °C |
| C=CCc1c(C=O)cccc1OCc1ccccc1 | 66 to 67 °C |
| O=C(O)c1ccnc2[nH]c(CCc3ccccc3)cc12 | > 300 °C |
| CC(C)(C)OC(=O)N[C@H]1CCN(c2nc3c(cc2F)c(=O)[nH]c(=O)n3C2CC2)C1 | 220 to 222 °C |
| COCC1CN(c2ccc(C3CCC(OC(=O)c4ccccc4C4=NCCO4)CC3)cc2)C(=O)O1 (racemic) | 182 to 184 °C |
| O=c1ccc(-c2c(-c3ccccc3)nn3ccccc23)nn1C1=C(CCO)CCCC1 | 198 to 199 °C |
| CCCN(C(N)=S)C(COC1CCCCO1)c1ccccc1 (configuration not stated) | 82 °C |
| Cc1ccc(C(=O)c2c(C)cc(C)cc2O)cc1 | 102 to 105 °C |
| Nc1cn(-c2cccnc2)nc1Cl | 70 to 72 °C |
| c1csc(-c2nc(CCCOc3ccc(CCCn4ccnc4)cc3)co2)c1 | 99 to 100 °C |
| CCCn1c(=O)c2nc(CC(C)c3ccccc3)[nH]c2n(CCC)c1=O (configuration not stated) | 136 to 137 °C |
| Cc1ccc(-c2ccccc2-c2n[nH]c(=O)n2C)cc1 | 181 to 182 °C |
| CN1CCCC1CCNNC(=O)N1CCC(c2[nH]nc3c2C(=O)c2c(NC(=O)NN4CCOCC4)cccc2-3)CC1 (configuration not stated) | 91 to 93 °C |
| CC(C)(C)c1cccc(S(=O)(=O)n2c(Cc3ccc(C(=O)O)cc3)cc3ccc(C(F)(F)F)cc32)c1 | 199 °C |
| COC(=O)CCCOc1ccc(CC(C)NCC(O)c2cc3ccccc3o2)cc1 (configuration not stated) | 63 to 70 °C |
| COC(=O)c1cc(C(=O)N[C@@H](Cc2ccccc2)[C@H](O)CNC2(c3cccc(C(F)(F)F)c3)CC2)n2c1CN(C(=O)OC(C)(C)C)CC2 | 136 °C |
| CCCCN(CCCC)c1ccc(C2(c3cc(Nc4ccccc4)ccc3OC)OC(=O)c3ccccc32)c(O)c1 (configuration not stated) | 148 to 152 °C |
| O=c1cc(Cl)sn1-c1ccc(Cl)cc1 | 117 to 119 °C |
| NCC(c1ccc(F)cc1)C1CCCCC1O (mixture of isomers) | 75 to 76 °C |
| CC(C)(C)CN1C(=O)N(CC(=O)O)N=C(c2ccccc2Cl)c2cc(Cl)ccc21 | 181 to 183 °C |
| CCCN(C)C(=O)COC1c2ccccc2C(=O)N1c1ccc2ccc(OC)nc2n1 (configuration not stated) | 160 °C |
| O=C1CCCCC1c1ccc(F)cc1 (configuration not stated) | 56 to 59 °C |

| Structure (SMILES) | melting point |
| --- | --- |
| Cc1nc(C)c(-c2ccnc(Nc3cccnc3)n2)s1 | 159 to 162 °C |
| COC(=O)NC(CCc1ccc(Br)cc1)C(=O)O (configuration not stated) | 136 to 137 °C |
| CCc1n[nH]c(CC)c1Cc1cc(C#N)cc(C#N)c1 | 141 to 143 °C |
| CCCCC(=O)N1CCN(C(=O)Nc2ccccc2CCc2cc(C(C)(C)C)c(O)c(C(C)(C)C)c2)CC1 | 126 to 128 °C |
| CS(=O)(=O)Nc1cc(N)ccc1OC1CCCCC1 | 152 to 154 °C |
| CCC(C)Nc1nc2ncnn2c2c1cnc1c2cnn1CC (configuration not stated) | 228 to 230 °C |
| CCOC(=O)N1CCc2nc3ccccc3c(CO)c2CC1 | 158 °C |
| CN(C(=O)Nc1ccsc1)c1cccc2cc(-c3nccs3)[nH]c12 | 266 °C |
| Nc1nc2c(s1)CC(N1CCN(c3ccccn3)CC1)CC2 (single isomer, unassigned; (-)) | 230 to 232 °C |
| COc1cc(C)nc(NC(=O)NS(=O)(=O)c2ccccc2NC(C)=O)n1 | 161 to 162 °C |
| CSc1nc(Oc2ccccc2)c(C(=O)O)c(Oc2ccccc2)n1 | 97 to 98 °C |
| CS(=O)c1c(C(=N)NO)nn(-c2c(Cl)cc(C(F)(F)F)cc2Cl)c1N (configuration not stated) | 225 to 226 °C |
| Cc1nnc2n1-c1sc(Cl)cc1C(c1ccccc1[N+](=O)[O-])=NC2 | 210 to 212 °C |
| O=c1[nH]c2c(I)c(Cl)c(Cl)c(I)c2[nH]c1=O | 353 to 354 °C |
| CCOc1nn(-c2cc(C(F)(F)F)ccn2)cc1CCCOc1cccc(OC(C)(C)C(=O)O)c1 | 98 to 99 °C |
| CCCC/C(=C\C=C\C(=O)Oc1ccc([N+](=O)[O-])cc1)c1ccc(OC)cc1 | 78 to 80 °C |
| CCCN(CCC)c1c(CC)nn2c(-c3ccc(N(C)C)cc3Cl)cccc12 | 133 to 134 °C |
| COc1ccc(C(=O)CCCC(=O)C(F)(F)F)cc1 | 67.5 to 68.9 °C |
| COc1cc2c(cc1O)C1Cc3c(Cl)cc(OC)c(OCC(=O)O)c3CN1CC2 (configuration not stated) | 172 to 174 °C |
| O=C(O)C=Cc1cc(Cl)ccc1C(=O)O | 200 to 202 °C |
| C#CCOC(=O)C1=C(C)NC(N)=C(C(=O)OCC)C1c1cccc([N+](=O)[O-])c1 (configuration not stated) | 181 °C |
| CCCCc1nc2c(N)nc3ccc(OCCC4CCN(C(=O)C(C)C)CC4)cc3c2n1C | 189 to 193 °C |
| O=C(NNC(=O)c1ccnc2[nH]ccc12)OCc1ccccc1 | 203 to 204 °C |
| CSC1=NC(C)(C)SC1=NO | 168 to 171 °C |
| C=CCN1CCC(c2cc(-c3ccc(Cl)cc3)[nH]n2)CC1 | 165 to 167 °C |

| Structure (SMILES) | melting point |
| --- | --- |
| Cc1nc(C)c(CSC(=O)c2ccccc2)c(O)c1O | 174 to 177 °C |
| COC(=O)c1c(C(F)F)nc(C(F)(F)F)c(-n2cccc2)c1C1CCC1 | 70 to 71 °C |
| CC(c1cccc2c1C(=O)NS2(=O)=O)[Si](C)(C)C (configuration not stated) | 123 to 125 °C |
| O=C(CCl)Nc1ccc2c(c1NC(=O)c1ccc(Cl)cc1)C(=O)c1ccccc1C2=O | 224 to 225 °C |
| CSc1c(S(N)(=O)=O)ccn1C | 135 to 137 °C |
| CC(C)c1cccc(C(C)C)c1NS(=O)(=O)CC(=O)NCC(c1ccccc1)C1CCCC1 (configuration not stated) | 168 to 170 °C |
| CC(C)(Oc1ccc(Cl)cc1)C(=O)NCCO[N+](=O)[O-] | 81 to 82 °C |
| CN(C)CCCNC(=O)CCCCCCCCCCCNC(N)=NC(=O)c1nc(Cl)c(N)nc1N | 82 to 84 °C |
| CC(=O)SCC(Cc1ccccc1)C(=O)Nc1cccc(C(=O)O)c1 (configuration not stated) | 169 to 170 °C |
| O=C(NC1CC1)c1cc(Nc2nc(N3CCC[C@H]3CO)nc3ccoc23)n[nH]1 | 96.8 °C |
| CNC(=O)N(CCN1CCC(Nc2nc3ccccc3n2Cc2ccc(F)cc2)CC1)c1nccs1 | 172 °C |
| COc1ccc(S(=O)(=O)N2CC(C)(C)CN(S(=O)(=O)c3ccc(OC)cc3)C2C(=O)NO)cc1 | 125 to 126 °C |
| CC(=O)NCCC1CCc2ccc3nc(CCCc4ccccc4)oc3c21 (configuration not stated) | 95 to 97 °C |
| FC(F)(F)COc1ccc(-c2cc(C(F)(F)F)n3ncc(-c4cccnc4)c3n2)cc1C(F)(F)F | 181 °C |
| CC(C)(C)c1ccc(-c2ccc(C(CCC(=O)O)=NO)cc2)cc1 | 170 to 172 °C |
| CCOC(=O)c1cn(C)c2cc(-c3ccccc3)sc2c1=O | 189 to 191 °C |
| Cc1ccc2c(c1)NC(=O)[C@H](N)C[C@@H]2C1CCCCC1 (relative stereo) | 64 to 66 °C |
| Cc1ccn2cc(CCc3ccc4nc(N=CN(C)C)oc4c3)nc2c1 | 150 to 151 °C |
| CCOC12CC(C)(C)C(O1)C(OC(=O)c1ccc([N+](=O)[O-])cc1)C=C2C (configuration not stated) | 144 to 146 °C |
| CC(C)(C)[Si](C)(C)OC1CC(=O)c2cc(F)ccc21 (configuration not stated) | 56 to 58 °C |
| O=C(O)c1ccc2[nH]cc(CCCCN3CC=C(c4ccccc4)CC3)c2c1 | 284 to 285 °C |
| CC(Cc1c[nH]c2ccccc12)(NC(=O)OC1C2CC3CC(C2)CC1C3)C(=O)NCC(=NOCC(=O)O)c1ccccc1 (configuration not stated) | 138 to 142 °C |
